According to ChEMBL document CHEMBL1201862, “PubChem BioAssay data set” (2004):
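A five-concentration, 48-hour dose response in 96-well plates underlies each endpoint, interpolated linearly between surrounding concentrations. GI50: concentration for 50% inhibition of growth.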 Activity calls are given as the source filed them. Rule as the data show it: active = GI50 up to about 1.1 µM and inactive = higher.

Assays:
Assay in all cases: NCI-60 cell line screen, 48 h
[1] = system: SK-OV-3
[2] = system: ACHN
[3] = system: SK-MEL-28
[4] = system: HOP-62
[5] = system: COLO 205
[6] = system: U-251
[7] = system: SW-620
[8] = system: OVCAR-4
[9] = system: MDA-MB-231
[10] = system: SF-295
[11] = system: EKVX
[12] = system: SF-268
[13] = system: HCT-15
[14] = system: M14
[15] = system: HCC 2998
[16] = system: NCI-H460
[17] = system: BT-549
[18] = system: NCI-H522
[19] = system: CAKI-1
[20] = system: T47D

In the case of C[C@H](c1ccccc1)N1C(=O)[C@@H](O)[C@H]1[C@H](CO)OCc1ccccc1, the GI50 [1] is reported as > 100 µM (inactive), the GI50 [2] is reported as > 100 µM (inactive) and the GI50 [3] is reported as > 100 µM (inactive). For the same compound, the GI50 [4] was > 100 µM (inactive), the GI50 [5] was > 100 µM (inactive) and the GI50 [6] was > 100 µM (inactive). For the same compound, the GI50 [7] was > 100 µM (inactive), the GI50 [8] was > 100 µM (inactive) and the GI50 [9] was > 100 µM (inactive). For the same compound, the GI50 [10] was 95.3 µM (inactive), the GI50 [11] was > 100 µM (inactive) and the GI50 [12] was > 100 µM (inactive). The GI50 [13] was over 100 µM and the GI50 [14] was > 100 µM (inactive).
Nc1ccc2c3c1cccc3c(=O)n1c3ccc(Cc4ccc5c(c4)nc4c6ccc(N)c7cccc(c(=O)n54)c76)cc3nc21 was tested, and the GI50 [1] was > 100 µM (inactive), the GI50 [2] was > 100 µM (inactive) and the GI50 [3] was > 100 µM (inactive). For the same compound, the GI50 [4] was > 100 µM (inactive), the GI50 [15] was > 100 µM (inactive) and the GI50 [5] was > 100 µM (inactive). The GI50 [6] was > 100 µM (inactive), the GI50 [16] was > 100 µM (inactive) and the GI50 [7] was > 100 µM (inactive). For the same compound, the GI50 [17] was > 100 µM (inactive), the GI50 [8] was > 100 µM (inactive) and the GI50 [18] was > 100 µM (inactive). For the same compound, the GI50 [9] was > 100 µM (inactive), the GI50 [10] was > 100 µM (inactive) and the GI50 [19] was > 100 µM (inactive). The GI50 [11] was > 100 µM (inactive) and the GI50 [14] was > 100 µM (inactive).
For CCOC(=O)[C@@H]1ON2O[C@H](OC3CCCCC3c3ccccc3)C[C@H]3OC(=O)[C@@H]1C32 (some centres not stated), the GI50 [1] was > 100 µM (inactive), the GI50 [2] was > 100 µM (inactive) and the GI50 [4] was > 100 µM (inactive). For the same compound, the GI50 [15] was 64.6 µM (inactive), the GI50 [5] was > 100 µM (inactive) and the GI50 [6] was > 100 µM (inactive). The GI50 [16] was 39.8 µM (inactive), the GI50 [7] was > 100 µM (inactive) and the GI50 [18] was 67.6 µM (inactive). The GI50 [9] was > 100 µM (inactive), the GI50 [10] was > 100 µM (inactive) and the GI50 [19] was > 100 µM (inactive). The GI50 [11] was > 100 µM (inactive), the GI50 [12] was > 100 µM (inactive) and the GI50 [20] was > 100 µM (inactive). The GI50 [13] was over 100 µM and the GI50 [14] was > 100 µM (inactive).
With Cc1cc2c(cc1Cl)SC(c1ccccc1)C(=O)NS2(=O)=O (configuration not stated) the GI50 [1] was 31.9 µM (inactive), the GI50 [2] was 36.7 µM (inactive) and the GI50 [3] was 34.8 µM (inactive). For the same compound, the GI50 [4] was 44.3 µM (inactive), the GI50 [15] was 30.3 µM (inactive) and the GI50 [6] was 23.1 µM (inactive). For the same compound, the GI50 [16] was 30.3 µM (inactive), the GI50 [7] was 40 µM (inactive) and the GI50 [8] was 35.4 µM (inactive). The GI50 [18] was 25.9 µM (inactive), the GI50 [9] was 32.3 µM (inactive) and the GI50 [10] was 28.3 µM (inactive). For the same compound, the GI50 [19] was 38.9 µM (inactive), the GI50 [11] was 70.1 µM (inactive) and the GI50 [12] was 33.3 µM (inactive). For the same compound, the GI50 [20] was 30.1 µM (inactive), the GI50 [13] was 25 µM and the GI50 [14] was 39 µM (inactive).
In the case of COC(=O)C1=C(C(=O)OC)C(C(=O)c2ccc(Br)cc2)N2N=C(c3ccc(Cl)cc3)C=CC12 (configuration not stated), the GI50 [1] is reported as > 100 µM (inactive), the GI50 [2] is reported as > 100 µM (inactive) and the GI50 [3] is reported as > 100 µM (inactive). The GI50 [4] was > 100 µM (inactive), the GI50 [15] was > 100 µM (inactive) and the GI50 [5] was > 100 µM (inactive). The GI50 [6] was > 100 µM (inactive), the GI50 [16] was > 100 µM (inactive) and the GI50 [7] was > 100 µM (inactive). For the same compound, the GI50 [17] was 34.8 µM (inactive), the GI50 [8] was > 100 µM (inactive) and the GI50 [18] was 26.2 µM (inactive). The GI50 [9] was > 100 µM (inactive), the GI50 [10] was 67 µM (inactive) and the GI50 [19] was 80.7 µM (inactive). For the same compound, the GI50 [11] was > 100 µM (inactive), the GI50 [12] was 69.7 µM (inactive) and the GI50 [13] was over 100 µM. For the same compound, the GI50 [14] was > 100 µM (inactive).
In the case of O=C(O)c1ccccc1CC(Cc1ccc2c(c1)CCC2)C(=O)O (configuration not stated), the GI50 [1] is reported as > 100 µM (inactive), the GI50 [2] is reported as > 100 µM (inactive) and the GI50 [3] is reported as > 100 µM (inactive). For the same compound, the GI50 [4] was > 100 µM (inactive), the GI50 [15] was > 100 µM (inactive) and the GI50 [5] was > 100 µM (inactive). The GI50 [6] was > 100 µM (inactive), the GI50 [16] was > 100 µM (inactive) and the GI50 [7] was > 100 µM (inactive). The GI50 [8] was > 100 µM (inactive), the GI50 [18] was > 100 µM (inactive) and the GI50 [9] was > 100 µM (inactive). For the same compound, the GI50 [10] was > 100 µM (inactive), the GI50 [19] was > 100 µM (inactive) and the GI50 [11] was > 100 µM (inactive). The GI50 [12] was > 100 µM (inactive), the GI50 [20] was > 100 µM (inactive) and the GI50 [13] was over 100 µM. The GI50 [14] was > 100 µM (inactive).
For O=C(O)CNc1c2ccccc2[n+]([O-])c2ccccc12, the GI50 [1] was > 100 µM (inactive), the GI50 [2] was 65.5 µM (inactive) and the GI50 [3] was 42.2 µM (inactive). The GI50 [4] was > 100 µM (inactive), the GI50 [15] was > 100 µM (inactive) and the GI50 [5] was 72.3 µM (inactive). For the same compound, the GI50 [6] was > 100 µM (inactive), the GI50 [16] was > 100 µM (inactive) and the GI50 [7] was > 100 µM (inactive). The GI50 [8] was 94.2 µM (inactive), the GI50 [18] was 50.1 µM (inactive) and the GI50 [10] was > 100 µM (inactive). The GI50 [19] was > 100 µM (inactive), the GI50 [11] was > 100 µM (inactive) and the GI50 [12] was > 100 µM (inactive). The GI50 [13] was 72.1 µM and the GI50 [14] was > 100 µM (inactive).
For C[C@H]1C[C@H](C)c2ccccc2N(C)/C1=N\c1ccccc1, the GI50 [2] was 34.4 µM (inactive), the GI50 [3] was 28.1 µM (inactive) and the GI50 [4] was 19.3 µM (inactive). The GI50 [15] was 39.2 µM (inactive), the GI50 [5] was 18.4 µM (inactive) and the GI50 [16] was 15.8 µM (inactive). For the same compound, the GI50 [7] was 61.5 µM (inactive), the GI50 [8] was > 100 µM (inactive) and the GI50 [9] was 14.8 µM (inactive). For the same compound, the GI50 [10] was 26.4 µM (inactive), the GI50 [19] was 63.1 µM (inactive) and the GI50 [11] was 25.5 µM (inactive). For the same compound, the GI50 [12] was 56 µM (inactive), the GI50 [20] was 32.8 µM (inactive) and the GI50 [13] was 37.2 µM. The GI50 [14] was 21.5 µM (inactive).
